Legend:
Format in all cases: ADME, organism-based
Set-up in all cases: dose 10 mg/kg, route intravenous
[1] = Cmax in CD1 mouse at 10 mg/kg, iv bid; conditions: in vivo
[2] = AUC in CD1 mouse at 10 mg/kg, iv bid; conditions: plasma
[3] = Clearance in CD1 mouse at 10 mg/kg, iv bid; conditions: in vivo
[4] = Half life in CD1 mouse at 10 mg/kg, iv bid; conditions: in vivo
[5] = Volume of distribution in CD1 mouse at 10 mg/kg, iv bid; conditions: in vivo

## O=C(Nc1n[nH]c2cc(C(=O)N[C@H](CN3CCCC3)c3ccccc3)sc12)c1ccc(N2CCOCC2)cc1
[1]
  Cmax: 9 µM
[2]
  AUC: 9 µM·h
[3]
  clearance: 50 mL/min/kg
[4]
  half-life: 7 h
[5]
  Vd: 16 L/kg

Reference: ChEMBL document CHEMBL1255180, “Thieno[3,2-c]pyrazoles: a novel class of Aurora inhibitors with favorable antitumor activity” (Bioorg Med Chem, 2010)
